This note sets out measurements from US6864262B2, “1-(2-m-methanesulfonamidophenylethyl)-4-(m-trifluoromethylphenyl) piperazine and pharmaceutically acceptable salts and solvents thereof” (Eli Lilly and Company, priority 2000, dated 2005).

In data set [1] the test system is Adult female cats. The data set can be described thus: Transvesical cystometrograms and periurethral EMG in anesthetized cats, acetic acid infusion.
Procedure: Adult female cats were anesthetized with alpha chloralose (50-75 mg/kg i.v.) One catheter was inserted into the carotid artery for measuring systemic blood pressure and heart rate. A second catheter was inserted in the radial vein for administering drugs. Following a midline laparotomy, the bladder was cannulated through the dome to allow infusion of fluids and recording of intravesical pressure. The urethra remained patent to allow expulsion of fluids during reflex micturition.
Transvesical cystometrograms (CMGs) were recorded by emptying the bladder, beginning infusion (0.5 ml/min) with saline, and noting the volume at which fluid release and bladder contraction occurred (i.e. micturition). This volume is defined as bladder capacity. EMG activity was recorded from the periurethral musculature with bipolar hook electrodes placed within 0.5 cm of the urethral meatus via an intravaginal approach. After establishing bladder capacity and EMG activity under conditions of saline infusion, the infusion cannula was switched to infuse 0.5% acetic acid solution and cystometry repeated.
Following cystometry, the bladder was allowed to continuously fill, which produced rhythmic bladder contractions accompanied by fluid release. During this time of rhythmic bladder activity, vehicle or drug was administered. Within 5 minutes, the bladder was emptied; another CMG was performed, and bladder capacity and EMG activity were again measured. The bladder was then continuously filled to produce rhythmic contractions with fluid release, and the frequency of these rhythmic contractions was measured over a fifteen minute period to record drug effects on contraction frequency. This procedure was repeated with increasing doses of drug to produce a cumulative dose response curve.
All other drugs were dissolved in saline.
The target of data set [2] is T1, 5-HT1F (Homo sapiens, UniProt P30939).
T1 construct: expressed in transfected cells
T1 sequence (P30939 1-366): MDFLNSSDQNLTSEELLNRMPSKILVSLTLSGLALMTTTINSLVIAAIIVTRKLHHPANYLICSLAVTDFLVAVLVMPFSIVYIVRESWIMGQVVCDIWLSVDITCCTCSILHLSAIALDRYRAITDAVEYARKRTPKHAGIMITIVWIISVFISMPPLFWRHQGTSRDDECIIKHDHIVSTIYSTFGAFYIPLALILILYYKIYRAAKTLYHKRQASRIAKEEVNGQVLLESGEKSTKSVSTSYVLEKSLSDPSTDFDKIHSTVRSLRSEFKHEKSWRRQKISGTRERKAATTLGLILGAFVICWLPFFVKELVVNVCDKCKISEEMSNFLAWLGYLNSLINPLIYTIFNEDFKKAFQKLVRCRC
Nature of the data set: Binding affinity at cloned human serotonin receptors.

The target of data set [3] is T2, 5-HT1D (Homo sapiens, UniProt P28221).
T2 construct: expressed in transfected cells
The data set can be described thus: Functional data in cloned human serotonin receptors. The class given is biochemical.

Data set [4] has as its target T3, 5-HT1E (Homo sapiens, UniProt P28566).
T3 construct: expressed in transfected cells
The data set can be described thus: Binding affinity at cloned human serotonin receptors.

Data set [5] addresses T4, 5-HT1B (Homo sapiens, UniProt P28222).
T4 construct: expressed in transfected cells
The description is as above.

The target in data set [6] is T1, 5-HT1F. Nature of the data set: Functional data in cloned human serotonin receptors. The data set is classed as biochemical.
In data set [7] the target is T5, 5-HT1A (Homo sapiens, UniProt P08908).
T5 construct: expressed in transfected cells
T5 sequence (P08908 1-422): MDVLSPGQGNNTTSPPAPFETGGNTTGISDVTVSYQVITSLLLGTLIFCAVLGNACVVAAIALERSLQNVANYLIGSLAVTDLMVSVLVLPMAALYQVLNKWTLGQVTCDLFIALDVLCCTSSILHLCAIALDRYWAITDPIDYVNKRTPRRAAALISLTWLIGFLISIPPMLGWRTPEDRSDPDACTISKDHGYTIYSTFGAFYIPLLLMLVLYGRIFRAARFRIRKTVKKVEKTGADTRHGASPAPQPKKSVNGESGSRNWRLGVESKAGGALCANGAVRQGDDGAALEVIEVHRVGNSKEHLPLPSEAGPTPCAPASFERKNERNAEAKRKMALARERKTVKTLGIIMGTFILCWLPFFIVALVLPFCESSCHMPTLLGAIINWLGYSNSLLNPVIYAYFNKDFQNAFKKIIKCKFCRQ
The data set can be described thus: Binding affinity at cloned human serotonin receptors.

The target in data set [8] is T6, 5-HT7 (Homo sapiens, UniProt P34969).
T6 construct: expressed in transfected cells
The data set is described as above.

Data set [9] addresses T5, 5-HT1A. The data set can be described thus: Functional data in cloned human serotonin receptors. The class given is biochemical.
The target in data set [10] is T2, 5-HT1D. Nature of the data set: Binding affinity at cloned human serotonin receptors.
Data set [11] has as its target T4, 5-HT1B. Nature of the data set: Functional data in cloned human serotonin receptors. The data set is classed as biochemical.
Where [12] appears, read: anesthetized cat, i.v., cumulative doses, acetic acid infusion.
The mark [13] stands for this setting: listed as compound of formula I.
The mark [14] stands for this setting: vs 1-(2-p-methanesulfonamidophenylethyl)-4-(m-trifluoromethylphenyl)piperazine.

By melting point is commonly meant the temperature, or range, at which the solid turns liquid. As a reminder, the Ki is the dissociation constant of the complex between target and ligand, obtained from inhibition or displacement. A word on the Emax: it is the maximal effect, on the per cent scale that the assay sets.

T2 sequence (P28221 whole entry): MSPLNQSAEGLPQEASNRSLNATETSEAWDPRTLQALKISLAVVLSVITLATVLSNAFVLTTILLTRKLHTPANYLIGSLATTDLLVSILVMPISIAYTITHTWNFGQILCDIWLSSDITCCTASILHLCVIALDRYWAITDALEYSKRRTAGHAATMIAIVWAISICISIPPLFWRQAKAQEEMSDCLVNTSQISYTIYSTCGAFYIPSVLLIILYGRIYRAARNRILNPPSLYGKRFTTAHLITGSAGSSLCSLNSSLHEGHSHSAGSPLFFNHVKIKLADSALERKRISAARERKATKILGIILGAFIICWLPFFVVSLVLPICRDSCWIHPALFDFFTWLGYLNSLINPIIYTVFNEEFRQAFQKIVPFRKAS
T4 sequence (P28222 whole entry): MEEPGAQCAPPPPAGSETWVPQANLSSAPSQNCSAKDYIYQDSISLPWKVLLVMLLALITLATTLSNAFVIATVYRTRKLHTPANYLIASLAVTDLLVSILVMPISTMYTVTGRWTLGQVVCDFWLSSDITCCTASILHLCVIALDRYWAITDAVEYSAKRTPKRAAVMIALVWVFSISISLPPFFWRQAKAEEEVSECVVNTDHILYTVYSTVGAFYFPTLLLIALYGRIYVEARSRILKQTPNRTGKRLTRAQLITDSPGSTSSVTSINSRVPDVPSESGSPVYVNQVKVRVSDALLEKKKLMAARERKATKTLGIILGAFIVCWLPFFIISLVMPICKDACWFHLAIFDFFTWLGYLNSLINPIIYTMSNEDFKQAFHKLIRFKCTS
T3 sequence (P28566 whole entry): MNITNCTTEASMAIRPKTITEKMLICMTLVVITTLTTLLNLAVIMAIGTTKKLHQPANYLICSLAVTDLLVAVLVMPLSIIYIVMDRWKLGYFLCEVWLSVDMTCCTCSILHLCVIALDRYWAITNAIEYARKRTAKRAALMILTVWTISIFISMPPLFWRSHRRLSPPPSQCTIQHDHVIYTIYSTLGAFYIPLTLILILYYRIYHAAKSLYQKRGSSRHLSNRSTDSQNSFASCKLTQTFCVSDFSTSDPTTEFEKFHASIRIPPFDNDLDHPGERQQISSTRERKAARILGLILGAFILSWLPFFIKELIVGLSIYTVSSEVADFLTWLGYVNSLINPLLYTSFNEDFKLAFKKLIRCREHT
T6 sequence (P34969 whole entry): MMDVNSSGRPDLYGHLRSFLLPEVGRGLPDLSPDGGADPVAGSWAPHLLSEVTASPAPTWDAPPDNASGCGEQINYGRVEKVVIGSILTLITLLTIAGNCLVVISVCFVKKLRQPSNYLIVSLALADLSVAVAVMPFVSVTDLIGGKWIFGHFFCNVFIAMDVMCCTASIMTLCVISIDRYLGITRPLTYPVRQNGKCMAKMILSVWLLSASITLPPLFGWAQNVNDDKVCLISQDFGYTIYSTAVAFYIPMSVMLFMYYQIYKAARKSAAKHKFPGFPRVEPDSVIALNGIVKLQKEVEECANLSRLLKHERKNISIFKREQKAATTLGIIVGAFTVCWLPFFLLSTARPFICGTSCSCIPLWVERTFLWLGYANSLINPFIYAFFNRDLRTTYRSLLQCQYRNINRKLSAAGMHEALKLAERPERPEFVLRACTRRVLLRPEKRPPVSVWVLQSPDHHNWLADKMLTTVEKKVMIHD

`CS(=O)(=O)Nc1cccc(CCN2CCN(c3cccc(C(F)(F)F)c3)CC2)c1.Cl` registered a melting point of 198 to 199 °C.

On to `COc1ccc(NC(=O)c2ccc(-c3ccc(-c4noc(C)n4)cc3C)cc2)cc1N1CCN(C)CC1` [GR127935, reference compound], for which, in [1] (setting [12]), the bladder capacity result was “dose-dependent increases”, the “external urethral sphincter (EUS) EMG activity” value (“external urethral sphincter” below) was “increase” and the “frequency of micturition contractions” value was “reduced”.

On to `CN(C)CCc1c[nH]c2ccc(C[C@H]3COC(=O)N3)cc12` [zolmitriptan, reference compound], for which, in data set [1] (setting [12]), the bladder capacity result is “dose-dependent increases”, the “external urethral sphincter” value is on record as “increase” and the “frequency of micturition contractions” value is given as “reduced”.

With `CS(=O)(=O)Nc1cccc(CCN2CCN(c3cccc(C(F)(F)F)c3)CC2)c1` [LY217101, 1-(2-m-methanesulfonamidophenylethyl)-4-(m-trifluoromethylphenyl)piperazine], the Ki in [2] was 32.3 nM; in data set [4], 3880 nM; in [5], 1.7 nM; in data set [7], 0.95 nM; in data set [8], 104 nM; in [10], 1.2 nM. Also, the Emax in data set [3] was found to be 93.4%; in data set [6], 95.5%; in data set [11], 88.2%. In addition, the “functional character at 5-HT1D” value in data set [3] (listed as Formula 1) is on record as “Agonist”; in data set [3] (setting [13]) it was “agonist”. The “fold higher affinity for the 5-HT1B receptor than the p-regioisomer” value in [5] (setting [14]) was determined as 56 fold. In data set [1] (LY217101 given after WAY100635), the EMG activity entry is reported as “no longer produces”. The bladder capacity result in data set [1] (LY217101 given after WAY100635) is “increase”; in data set [1] (setting [12]), “dose-dependent increases”. Besides, the bradycardia result in [1] (LY217101 given after WAY100635) is listed as “no longer produces”; in data set [1] (anesthetized cat, i.v.) it was “induced”. For the same molecule, the “frequency of micturition contractions” value in data set [1] (LY217101 given after WAY100635) was “continued to reduce”; in data set [1] (setting [12]), “reduced”. Also, the hypotension result in data set [1] (LY217101 given after WAY100635) was “no longer produces”; in [1] (anesthetized cat, i.v.), “induced”. Further, the “external urethral sphincter” value in [1] (setting [12]) was “increase”. For the same molecule, the “functional character at 5-HT1A” value was “Agonist” in data set [9] (listed as Formula 1) and “agonist” in data set [9] (setting [13]). For the same molecule, in data set [10] (setting [14]), the “fold higher affinity for the 5-HT1D receptor than the p-regioisomer” value stood at 45 fold. Besides, the “functional character at 5-HT1B” value in data set [11] (listed as Formula 1) is reported as “Agonist”; in data set [11] (setting [13]), “agonist”.

Turning to `CS(=O)(=O)Nc1ccc(CCN2CCN(c3cccc(C(F)(F)F)c3)CC2)cc1` [1-(2-p-methanesulfonamidophenylethyl)-4-(m-trifluoromethylphenyl)piperazine, reference compound], the “% displacement, 5-HT1F” value in [2] (@ 1000 nM) is recorded as 14% @ 1000. In data set [4] (@ 1000 nM), the “% displacement, 5-HT1E” value is on record as 5% @ 1000. Also, the Ki is 9.49 nM in data set [5], 3.45 nM in [7], 45 nM in data set [8] and 55.3 nM in data set [10].

The molecule `CS(=O)(=O)Nc1cccc(CCN2CCN(c3cccc(C(F)(F)F)c3)CC2)c1.O=C(O)C(=O)O` showed a melting point of 164 °C.

Take `COc1ccc(CNC(=O)/C=C/c2ccc3[nH]cc(CCN(C)C)c3c2)cc1` [GR46611, reference compound]: in data set [1] (setting [12]), the bladder capacity result is “dose-dependent increases”, the “external urethral sphincter” value is on record as “increase” and the “frequency of micturition contractions” value is on record as “reduced”.

In the case of `COc1ccccc1N1CCN(CCN(C(=O)C2CCCCC2)c2ccccn2)CC1` [WAY100635, reference compound], in data set [1] (anesthetized cat, WAY100635 given after compound of Formula I), the “reversal of hypotension, bradycardia, decrease in contraction frequency and increase in EMG activity induced by the compound of Formula I” value is reported as “partially reversed”.
